What all share (assay type): in vivo
For one test, the system named is Bemisia tabaci. Put plainly: Example B7: Bemisia tabaci, sprayed cotton leaf discs. The following applies: foliar, 144 h, application rate 200 ppm, adult white flies, 6 days after incubation. The procedure:
Cotton leaf discs were placed on agar in 24-well microtiter plates and sprayed with aqueous test solutions prepared from 10,000 ppm DMSO stock solutions. After drying the leaf discs were infested with adult white flies. The samples were checked for mortality 6 days after incubation.

In a further test the test system is Euschistus heros. Put plainly: Example B8: Euschistus heros, sprayed soybean leaves. To be noted: for percent effect (mortality or growth inhibition) at 200 ppm: Euschistus heros, 120 h, application rate 200 ppm, N2 nymphs, 5 days after infestation, read-out: effect in at least one of the two categories (mortality or growth inhibition); for mortality at 0.8 ppm: Euschistus heros (B8), concentration 0.8 ppm. The protocol: Soybean leaves on agar in 24-well microtiter plates were sprayed with aqueous test solutions prepared from 10,000 ppm DMSO stock solutions. After drying the leaves were infested with N2 nymphs. The samples were assessed for mortality and growth inhibition in comparison to untreated samples 5 days after infestation.

Test [1] relates to Myzus persicae. Put plainly: Example B5: Myzus persicae feeding/contact, sprayed sunflower leaf discs. The following applies: foliar; for mortality at 200 ppm: Myzus persicae, 144 h, application rate 200 ppm, mixed ages, 6 days after infestation; for mortality at 12.5 ppm: Myzus persicae (B5), concentration 12.5 ppm. The procedure: Sunflower leaf discs were placed onto agar in a 24-well microtiter plate and sprayed with aqueous test solutions prepared from 10,000 ppm DMSO stock solutions. After drying, the leaf discs were infested with an aphid population of mixed ages. The samples were assessed for mortality 6 days after infestation.

Another test relates to Spodoptera littoralis. Put plainly: Example B1: Spodoptera littoralis, sprayed cotton leaf discs. The following applies: foliar, 72 h, application rate 200 ppm, L1 larvae, 3 days after infestation. The protocol:
Cotton leaf discs were placed onto agar in 24-well microtiter plates and sprayed with aqueous test solutions prepared from 10′000 ppm DMSO stock solutions. After drying the leaf discs were infested with five L1 larvae. The samples were assessed for mortality, anti-feeding effect, and growth inhibition in comparison to untreated samples 3 days after infestation. Control of Spodoptera littoralis by a test sample is given when at least one of the categories mortality, anti-feedant effect, and growth inhibition is higher than the untreated sample.

The next test deals with Diabrotica balteata. In words: Example B4: Diabrotica balteata, sprayed maize sprouts. To be noted: 96 h, application rate 200 ppm, L2 larvae, 4 days after infestation, read-out: effect in at least one of the two categories (mortality or growth inhibition). The protocol:
Maize sprouts placed onto an agar layer in 24-well microtiter plates were treated with aqueous test solutions prepared from 10,000 ppm DMSO stock solutions by spraying. After drying, the plates were infested with L2 larvae (6 to 10 per well). The samples were assessed for mortality and growth inhibition in comparison to untreated samples 4 days after infestation.

Another test has as its system Plutella xylostella. In words: Example B3: Plutella xylostella, artificial diet. The following applies: 120 h, application rate 200 ppm, L2 larvae, 5 days after infestation, read-out: effect in at least one of the two categories (mortality or growth inhibition). The protocol:
24-well microtiter plates with artificial diet were treated with aqueous test solutions prepared from 10,000 ppm DMSO stock solutions by pipetting. After drying, the plates were infested with L2 larvae (10 to 15 per well). The samples were assessed for mortality and growth inhibition in comparison to untreated samples 5 days after infestation.

Test [2] deals with Myzus persicae. In words: Example B6: Myzus persicae systemic, pea seedling roots in test solution. To be noted: for mortality at 6 ppm: Myzus persicae (B6), concentration 6 ppm; for mortality at 24 ppm: Myzus persicae, 144 h, test rate 24 ppm, mixed ages, 6 days. The procedure:
Roots of pea seedlings infested with an aphid population of mixed ages were placed directly into aqueous test solutions prepared from 10,000 DMSO stock solutions. The samples were assessed for mortality 6 days after placing seedlings into test solutions.

The next test concerns Tetranychus urticae. In words: Example B10: Tetranychus urticae, sprayed bean leaf discs. To be noted: foliar, 192 h, application rate 200 ppm, mixed population (mobile stages), 8 days after infestation. The protocol:
Bean leaf discs on agar in 24-well microtiter plates were sprayed with aqueous test solutions prepared from 10,000 ppm DMSO stock solutions. After drying the leaf discs were infested with a mite population of mixed ages. The samples were assessed for mortality on mixed population (mobile stages) 8 days after infestation.

Turning to `CCS(=O)(=O)c1cc(C(C)(C)C#N)cnc1-n1cc2cnc(C(F)(F)F)cc2n1` [Compound P2, 2-[5-ethylsulfonyl-6-[6-(trifluoromethyl)pyrazolo[4,3-c]pyridin-2-yl]-3-pyridyl]-2-methyl-propanenitrile], the mortality at 200 ppm with Bemisia tabaci and in the test on Myzus persicae [1] was no less than 80% in each case. The percent effect (mortality or growth inhibition) at 200 ppm in the test on Euschistus heros, in the test on Diabrotica balteata and in the test with Plutella xylostella was no less than 80% in each case. The same compound returned a percent control (mortality, anti-feedant effect or growth inhibition) at 200 ppm with Spodoptera littoralis of no less than 80%.
`CCS(=O)(=O)c1cc(C(C)(C)C#N)ccc1-c1cn2ccc(C(F)(F)F)cc2n1` [Compound P19, 2-[3-ethylsulfonyl-4-[7-(trifluoromethyl)imidazo[1,2-a]pyridin-2-yl]phenyl]-2-methyl-propanenitrile] yielded a mortality at 200 ppm in the test with Bemisia tabaci of no less than 80%. Also, the percent control (mortality, anti-feedant effect or growth inhibition) at 200 ppm in the test with Spodoptera littoralis is no less than 80%. The percent effect (mortality or growth inhibition) at 200 ppm in the test with Diabrotica balteata and in the test on Plutella xylostella was no less than 80% in each case.
On to `CCS(=O)(=O)c1cc(C2(C#N)CC2)cnc1-c1cn2cnc(C(F)(F)F)cc2n1` [reference compound], for which, in the test on Euschistus heros, the mortality at 0.8 ppm amounted to 0%. For the same compound, the mortality at 12.5 ppm in the test with Myzus persicae [1] worked out at 0%. This compound also gave a mortality at 6 ppm with Myzus persicae [2] of 0%.
For `CCS(=O)(=O)c1cc(C(C)(C)C#N)ccc1-c1cn2cnc(C(F)(F)F)cc2n1` [Compound P20, 2-[3-ethylsulfonyl-4-[7-(trifluoromethyl)imidazo[1,2-c]pyrimidin-2-yl]phenyl]-2-methyl-propanenitrile], the mortality at 200 ppm in the test on Bemisia tabaci and with Myzus persicae [1] was no less than 80% in each case. The percent effect (mortality or growth inhibition) at 200 ppm in the test on Diabrotica balteata and with Plutella xylostella was no less than 80% throughout.
In the test with Myzus persicae [1], `CCS(=O)(=O)c1cc(C(C)(C)C#N)cnc1-c1cn2cnc(S(=O)(=O)C(F)F)cc2n1` [Compound P15, 2-[6-[7-(difluoromethylsulfonyl)imidazo[1,2-c]pyrimidin-2-yl]-5-ethylsulfonyl-3-pyridyl]-2-methyl-propanenitrile] yielded a mortality at 200 ppm of no less than 80%. This compound displayed a mortality at 24 ppm in the test on Myzus persicae [2] of no less than 80%. For the same compound, the percent effect (mortality or growth inhibition) at 200 ppm in the test with Plutella xylostella was no less than 80%.
As for `CCS(=O)(=O)c1cc(C(C)(C)C#N)cnc1-c1cn2ccc(C(F)(F)F)cc2n1` [Compound P9, 2-[5-ethylsulfonyl-6-[7-(trifluoromethyl)imidazo[1,2-a]pyridin-2-yl]-3-pyridyl]-2-methyl-propanenitrile], the mortality at 200 ppm with Myzus persicae [1] and in the test with Tetranychus urticae was no less than 80% throughout. The same compound showed a percent control (mortality, anti-feedant effect or growth inhibition) at 200 ppm with Spodoptera littoralis of no less than 80%. In addition, the percent effect (mortality or growth inhibition) at 200 ppm with Diabrotica balteata and with Plutella xylostella was no less than 80% throughout.
On to `CCS(=O)(=O)c1cc(C(C)(C)C#N)cnc1-c1cn2cnc(C(F)(F)F)cc2n1` [Compound P1, 2-[5-ethylsulfonyl-6-[7-(trifluoromethyl)imidazo[1,2-c]pyrimidin-2-yl]-3-pyridyl]-2-methyl-propanenitrile], for which the mortality at 200 ppm with Bemisia tabaci, in the test with Myzus persicae [1] and in the test with Tetranychus urticae was no less than 80% each time. In addition, the mortality at 0.8 ppm with Euschistus heros worked out at 100%. The percent effect (mortality or growth inhibition) at 200 ppm in the test on Euschistus heros, in the test on Diabrotica balteata and in the test with Plutella xylostella was no less than 80% throughout. Further, in the test on Myzus persicae [1], the mortality at 12.5 ppm was 100%. The same compound displayed a percent control (mortality, anti-feedant effect or growth inhibition) at 200 ppm with Spodoptera littoralis of no less than 80%. Also, the mortality at 6 ppm in the test on Myzus persicae [2] was 100%. The compound further returned a mortality at 24 ppm in the test with Myzus persicae [2] of no less than 80%.
`CCSc1cc(C(C)(C)C#N)cnc1-c1nc2cc(C(F)(F)F)n(C3CC3)c(=O)c2n1C` [Compound P18, 2-[6-[5-cyclopropyl-3-methyl-4-oxo-6-(trifluoromethyl)imidazo[4,5-c]pyridin-2-yl]-5-ethylsulfanyl-3-pyridyl]-2-methyl-propanenitrile]: the mortality at 200 ppm in the test on Myzus persicae [1] and with Tetranychus urticae was no less than 80% throughout. This compound registered a percent control (mortality, anti-feedant effect or growth inhibition) at 200 ppm in the test on Spodoptera littoralis of no less than 80%. Also, the percent effect (mortality or growth inhibition) at 200 ppm with Diabrotica balteata and in the test with Plutella xylostella was no less than 80% in each case.
`CCn1c(C(F)(F)F)cc2nc(-c3ccc(C(C)(C)C#N)cc3S(=O)(=O)CC)n(C)c2c1=O` [Compound P13, 2-[4-[5-ethyl-3-methyl-4-oxo-6-(trifluoromethyl)imidazo[4,5-c]pyridin-2-yl]-3-ethylsulfonyl-phenyl]-2-methyl-propanenitrile] showed a mortality at 200 ppm in the test on Bemisia tabaci of no less than 80%. Moreover, the percent control (mortality, anti-feedant effect or growth inhibition) at 200 ppm with Spodoptera littoralis is no less than 80%. Also, the percent effect (mortality or growth inhibition) at 200 ppm in the test on Diabrotica balteata and in the test on Plutella xylostella was no less than 80% each time.
Take `CCS(=O)(=O)c1cc(C(C)(C)C#N)cnc1-c1cn2ccc(SC(F)F)cc2n1` [Compound P5, 2-[6-[7-(difluoromethylsulfanyl)imidazo[1,2-a]pyridin-2-yl]-5-ethylsulfonyl-3-pyridyl]-2-methyl-propanenitrile]: the mortality at 200 ppm in the test with Bemisia tabaci and in the test with Myzus persicae [1] was no less than 80% throughout. Further, the percent control (mortality, anti-feedant effect or growth inhibition) at 200 ppm in the test with Spodoptera littoralis is no less than 80%. In the test with Diabrotica balteata, the percent effect (mortality or growth inhibition) at 200 ppm is no less than 80%.
As to `CCS(=O)(=O)c1cc(C(C)(C)C#N)cnc1-c1cn2ncc(C(F)(F)F)cc2n1` [Compound P8, 2-[5-ethylsulfonyl-6-[7-(trifluoromethyl)imidazo[1,2-b]pyridazin-2-yl]-3-pyridyl]-2-methyl-propanenitrile], the mortality at 200 ppm with Bemisia tabaci and in the test with Myzus persicae [1] was no less than 80% in each case. In addition, the percent effect (mortality or growth inhibition) at 200 ppm with Euschistus heros, with Diabrotica balteata and in the test with Plutella xylostella was no less than 80% each time. Besides, in the test with Spodoptera littoralis, the percent control (mortality, anti-feedant effect or growth inhibition) at 200 ppm is no less than 80%. The compound also yielded a mortality at 24 ppm in the test with Myzus persicae [2] of no less than 80%.
For the compound `CCSc1cc(C(C)(C)C#N)cnc1-c1nc2cc(C(F)(F)F)n(CC(F)(F)F)c(=O)c2n1C` [Compound P10, 2-[5-ethylsulfanyl-6-[3-methyl-4-oxo-5-(2,2,2-trifluoroethyl)-6-(trifluoromethyl)imidazo[4,5-c]pyridin-2-yl]-3-pyridyl]-2-methyl-propanenitrile], the mortality at 200 ppm with Bemisia tabaci and with Myzus persicae [1] was no less than 80% in each case. The percent effect (mortality or growth inhibition) at 200 ppm with Diabrotica balteata and with Plutella xylostella was no less than 80% in each case.
As for `CCS(=O)(=O)c1cc(C(C)(C)C#N)cnc1-c1cn2cnc(SC(F)F)cc2n1` [Compound P14, 2-[6-[7-(difluoromethylsulfanyl)imidazo[1,2-c]pyrimidin-2-yl]-5-ethylsulfonyl-3-pyridyl]-2-methyl-propanenitrile], the mortality at 200 ppm in the test on Bemisia tabaci and in the test with Myzus persicae [1] was no less than 80% in each case. Further, the percent effect (mortality or growth inhibition) at 200 ppm in the test with Euschistus heros, in the test on Diabrotica balteata and with Plutella xylostella was no less than 80% in each case. In the test on Spodoptera littoralis, this compound came in with a percent control (mortality, anti-feedant effect or growth inhibition) at 200 ppm of no less than 80%.
On to `CCS(=O)(=O)c1cc(C(C)(C)C#N)cnc1-c1cn2cnc([S+]([O-])C(F)F)cc2n1` (stereo not drawn) [Compound P16, 2-[6-[7-(difluoromethylsulfinyl)imidazo[1,2-c]pyrimidin-2-yl]-5-ethylsulfonyl-3-pyridyl]-2-methyl-propanenitrile], for which, in the test with Myzus persicae [1], the mortality at 200 ppm is no less than 80%. Moreover, in the test with Myzus persicae [2], the mortality at 24 ppm was no less than 80%. The percent effect (mortality or growth inhibition) at 200 ppm in the test on Plutella xylostella was no less than 80%.

Values taken from patent publication US11413291B2, “Pesticidally active heterocyclic derivatives with sulfur containing substituents” (SYNGENTA PARTICIPATIONS AG, priority 2017, dated 2022).
